Experimental findings from US11377441B2, “Covalent inhibitors of KRAS” (Araxes Pharma LLC, priority 2017, dated 2022) are described below.

This test has as its target T1, KRAS G12C 1-169, his-tagged protein, GDP-loaded (Homo sapiens, UniProt P01116, G12C).
T1 construct: KRAS G12C 1-169, his-tagged protein, GDP-loaded
The test can be described thus: Biochemical assay: covalent modification of KRAS G12C measured by mass spectrometry (RapidFire/TOF or Q-Exactive). The test is classed as binding. The note with it: for Binding %: covalent binding to (modification of) KRAS G12C after a ten minute incubation period. The essentials:
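Intact-mass readout (TOF or Q-Exactive, charge-envelope deconvolution) gives percent covalent adduct from modified and unmodified species. Compound at 10, 30 or 100 μM was incubated at room temperature for 10 min to 24 h with 2 μM or 0.5 μM GDP-bound KRAS G12C 1-169 in Hepes/NaCl/MgCl2 buffer, then acid-quenched.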

Take `C=CC(=O)N1C[C@H](C)N(c2nc(OC[C@@H]3CCCN3C)nc3c(F)c(-c4c(C)ccc5cnn(C)c45)c(Cl)cc23)C[C@H]1C` (atropisomer, axis not shown) [Compound 235, 1-((2R,5S)-4-((R)-6-chloro-7-(1,6-dimethyl-1H-indazol-7-yl)-8-fluoro-2-(((S)-1-methylpyrrolidin-2-yl)methoxy)quinazolin-4-yl)-2,5-dimethylpiperazin-1-yl)prop-2-en-1-one]: the Binding % entry is “+++ (+++ indicates binding activity greater than 80%)”.

Consider `C=CC(=O)N1C[C@H](C)N(c2nc(OC[C@H]3CCCN3C)nc3c(F)c(-c4c(C)ccc5cnn(C)c45)c(Cl)cc23)C[C@H]1C` (atropisomer, axis not shown) [Compound 236, 1-((2R,5S)-4-((R)-6-chloro-7-(1,6-dimethyl-1H-indazol-7-yl)-8-fluoro-2-(((R)-1-methylpyrrolidin-2-yl)methoxy)quinazolin-4-yl)-2,5-dimethylpiperazin-1-yl)prop-2-en-1-one], for which the Binding % entry is “+ (+ indicates binding activity greater than 0% and up to 50%)”.

Regarding `C=CC(=O)N1C[C@@H](C)N(c2nc(N3CC(N(C)C)C3)nc3c(F)c(-c4c(C)ccc5cnn(C)c45)c(Cl)cc23)C[C@H]1C` (atropisomer, axis not shown) [Compound 242, 1-((2R,5R)-4-((S)-6-chloro-7-(1,6-dimethyl-1H-indazol-7-yl)-2-(3-(dimethylamino)azetidin-1-yl)-8-fluoroquinazolin-4-yl)-2,5-dimethylpiperazin-1-yl)prop-2-en-1-one], the Binding % entry is “+ (+ indicates binding activity greater than 0% and up to 50%)”.

For `C=CC(=O)N1C[C@@H](C)N(c2nc(N3CC(N(C)C)C3)nc3c(F)c(-c4c(C)ccc5cnn(C)c45)c(Cl)cc23)C[C@H]1C` (atropisomer, axis not shown) [Compound 243, 1-((2R,5R)-4-((R)-6-chloro-7-(1,6-dimethyl-1H-indazol-7-yl)-2-(3-(dimethylamino)azetidin-1-yl)-8-fluoroquinazolin-4-yl)-2,5-dimethylpiperazin-1-yl)prop-2-en-1-one], the Binding % entry is reported as “+++ (+++ indicates binding activity greater than 80%)”.

Regarding `C=CC(=O)N1C[C@@H](C)N(c2nc(N3CC(N(C)C)C3)nc3c(F)c(-c4c(C)ccc5cnn(C)c45)c(Cl)cc23)C[C@@H]1C` (atropisomer, axis not shown) [Compound 245, 1-((2S,5R)-4-((S)-6-chloro-7-(1,6-dimethyl-1H-indazol-7-yl)-2-(3-(dimethylamino)azetidin-1-yl)-8-fluoroquinazolin-4-yl)-2,5-dimethylpiperazin-1-yl)prop-2-en-1-one], the Binding % result was “+ (+ indicates binding activity greater than 0% and up to 50%)”.

Take `C=CC(=O)N1C[C@@H](C)N(c2nc(N3CC(N(C)C)C3)nc3c(F)c(-c4c(C)ccc5cnn(C)c45)c(Cl)cc23)C[C@@H]1C` (atropisomer, axis not shown) [Compound 246, 1-((2S,5R)-4-((R)-6-chloro-7-(1,6-dimethyl-1H-indazol-7-yl)-2-(3-(dimethylamino)azetidin-1-yl)-8-fluoroquinazolin-4-yl)-2,5-dimethylpiperazin-1-yl)prop-2-en-1-one]: the Binding % result is “+ (+ indicates binding activity greater than 0% and up to 50%)”.

As for `C=CC(=O)N1C[C@H](C)N(c2nc(N3CC(N(C)C)C3)nc3c(F)c(-c4c(C)ccc5cnn(C)c45)c(Cl)cc23)C[C@@H]1C` (atropisomer, axis not shown) [Compound 248, 1-((2S,5S)-4-((S)-6-chloro-7-(1,6-dimethyl-1H-indazol-7-yl)-2-(3-(dimethylamino)azetidin-1-yl)-8-fluoroquinazolin-4-yl)-2,5-dimethylpiperazin-1-yl)prop-2-en-1-one], the Binding % result was “+ (+ indicates binding activity greater than 0% and up to 50%)”.

In the case of `C=CC(=O)N1C[C@H](C)N(c2nc(N3CC(N(C)C)C3)nc3c(F)c(-c4c(C)ccc5cnn(C)c45)c(Cl)cc23)C[C@@H]1C` (atropisomer, axis not shown) [Compound 249, 1-((2S,5S)-4-((R)-6-chloro-7-(1,6-dimethyl-1H-indazol-7-yl)-2-(3-(dimethylamino)azetidin-1-yl)-8-fluoroquinazolin-4-yl)-2,5-dimethylpiperazin-1-yl)prop-2-en-1-one], the Binding % entry was “+ (+ indicates binding activity greater than 0% and up to 50%)”.

For `C=CC(=O)N1C[C@@H](C)N(c2nc(N3CC(N(C)C)C3)nc3c(F)c(-c4c(C)ccc5[nH]nc(C6CC6)c45)c(Cl)cc23)C[C@H]1C` (atropisomer, axis not shown) [Compound 250, 1-((2R,5R)-4-((S)-6-chloro-7-(3-cyclopropyl-5-methyl-1H-indazol-4-yl)-2-(3-(dimethylamino)azetidin-1-yl)-8-fluoroquinazolin-4-yl)-2,5-dimethylpiperazin-1-yl)prop-2-en-1-one], the Binding % result was “+ (+ indicates binding activity greater than 0% and up to 50%)”.

For the compound `C=CC(=O)N1C[C@@H](C)N(c2nc(N3CC(N(C)C)C3)nc3c(F)c(-c4c(C)ccc5[nH]nc(C6CC6)c45)c(Cl)cc23)C[C@H]1C` (atropisomer, axis not shown) [Compound 251, 1-((2R,5R)-4-((R)-6-chloro-7-(3-cyclopropyl-5-methyl-1H-indazol-4-yl)-2-(3-(dimethylamino)azetidin-1-yl)-8-fluoroquinazolin-4-yl)-2,5-dimethylpiperazin-1-yl)prop-2-en-1-one], the Binding % entry is recorded as “+++ (+++ indicates binding activity greater than 80%)”.

Regarding `C=CC(=O)N1C[C@@H](C)N(c2nc(N3CC(N(C)C)C3)nc3c(F)c(-c4c(C)ccc5[nH]nc(C6CC6)c45)c(Cl)cc23)C[C@@H]1C` (atropisomer, axis not shown) [Compound 252, 1-((2S,5R)-4-((S)-6-chloro-7-(3-cyclopropyl-5-methyl-1H-indazol-4-yl)-2-(3-(dimethylamino)azetidin-1-yl)-8-fluoroquinazolin-4-yl)-2,5-dimethylpiperazin-1-yl)prop-2-en-1-one], the Binding % result was “+ (+ indicates binding activity greater than 0% and up to 50%)”.

`C=CC(=O)N1C[C@@H](C)N(c2nc(N3CC(N(C)C)C3)nc3c(F)c(-c4c(C)ccc5[nH]nc(C6CC6)c45)c(Cl)cc23)C[C@@H]1C` (atropisomer, axis not shown) [Compound 253, 1-((2S,5R)-4-((R)-6-chloro-7-(3-cyclopropyl-5-methyl-1H-indazol-4-yl)-2-(3-(dimethylamino)azetidin-1-yl)-8-fluoroquinazolin-4-yl)-2,5-dimethylpiperazin-1-yl)prop-2-en-1-one]: the Binding % entry was “+ (+ indicates binding activity greater than 0% and up to 50%)”.

With `C=CC(=O)N1C[C@H](C)N(c2nc(N3CC(N(C)C)C3)nc3c(F)c(-c4c(C)ccc5[nH]nc(C6CC6)c45)c(Cl)cc23)C[C@@H]1C` (atropisomer, axis not shown) [Compound 254, 1-((2S,5S)-4-((S)-6-chloro-7-(3-cyclopropyl-5-methyl-1H-indazol-4-yl)-2-(3-(dimethylamino)azetidin-1-yl)-8-fluoroquinazolin-4-yl)-2,5-dimethylpiperazin-1-yl)prop-2-en-1-one], the Binding % result was “+ (+ indicates binding activity greater than 0% and up to 50%)”.

`C=CC(=O)N1C[C@H](C)N(c2nc(N3CC(N(C)C)C3)nc3c(F)c(-c4c(C)ccc5[nH]nc(C6CC6)c45)c(Cl)cc23)C[C@@H]1C` (atropisomer, axis not shown) [Compound 255, 1-((2S,5S)-4-((R)-6-chloro-7-(3-cyclopropyl-5-methyl-1H-indazol-4-yl)-2-(3-(dimethylamino)azetidin-1-yl)-8-fluoroquinazolin-4-yl)-2,5-dimethylpiperazin-1-yl)prop-2-en-1-one]: the Binding % entry is “+ (+ indicates binding activity greater than 0% and up to 50%)”.

As to `C=CC(=O)N1C[C@H](C)N(c2nc(OC[C@H]3CCCN3C)nc3c(F)c(-c4c(C)ccc5cnn(C)c45)c(Cl)cc23)C[C@H]1C` (atropisomer, axis not shown) [Compound 261, 1-((2R,5S)-4-((S)-6-chloro-7-(1,6-dimethyl-1H-indazol-7-yl)-8-fluoro-2-(((R)-1-methylpyrrolidin-2-yl)methoxy)quinazolin-4-yl)-2,5-dimethylpiperazin-1-yl)prop-2-en-1-one], the Binding % result is on record as “+++ (+++ indicates binding activity greater than 80%)”.

`C=CC(=O)N1C[C@H](C)N(c2nc(N3CC(N(C)C)C3)nc3c(F)c(-c4c(C)ccc5[nH]ncc45)c(Cl)cc23)C[C@H]1C` (atropisomer, axis not shown) [reference compound] registered a binding activity (Example 14 comparative biochemical data, tested according to the above procedures (Example 1)) of 71%.

Take `C=CC(=O)N1C[C@H](C)N(c2nc(N3CC(N(C)C)C3)nc3c(F)c(-c4cccc5[nH]ncc45)c(Cl)cc23)C[C@H]1C` [Compound 1, 1-((2R,5S)-4-(6-chloro-2-(3-(dimethylamino)azetidin-1-yl)-8-fluoro-7-(1H-indazol-4-yl)quinazolin-4-yl)-2,5-dimethylpiperazin-1-yl)prop-2-en-1-one]: the Binding % entry is on record as “++ (++ indicates binding activity from 50 to 80%)”.

Consider `C=CC(=O)N1C[C@H](C)N(c2nc(N3CC(N(C)C)C3)nc3c(F)c(-c4cccc5[nH]nc(N)c45)c(Cl)cc23)C[C@H]1C` [Compound 2, 1-((2R,5S)-4-(7-(3-amino-1H-indazol-4-yl)-6-chloro-2-(3-(dimethylamino)azetidin-1-yl)-8-fluoroquinazolin-4-yl)-2,5-dimethylpiperazin-1-yl)prop-2-en-1-one], for which the Binding % entry is listed as “++ (++ indicates binding activity from 50 to 80%)”.
